Assay results reported in US20260041744A1, “Methods for Treating Pompe Disease” (Amicus Therapeutics, Inc., priority 2022, published 2026).
“Also recorded” adds a separate entry of the source.

Experiments:
[1] = tested on: adults with Pompe disease; experiment: Study ATB200-02: plasma/serum creatine kinase (CK); conditions: for mean reduction from baseline in plasma CK: b512 prints a minus sign
Protocol: The change from baseline (CFBL) in 6MWD, % predicted sitting FVC, manual muscle test (MMT) and biomarkers—urine glucose tetrasaccharide (Hex4) and serum creatine kinase (CK)—were assessed at regular intervals.

[2] = tested on: adults with Pompe disease; experiment: Study ATB200-02: sitting % predicted FVC; conditions: for FVC change from baseline, mean: Cohort 2 (non-ambulatory ERT-experienced)
Protocol: Four cohorts of patients with Pompe disease were enrolled in the ATB200-02 study: • Cohort 1: ERT-experienced, aged 18-65 years, with 2-6 years prior ERT with 20 mg/kg alglucosidase alfa every 2 weeks (n=11) • Cohort 2: Non-ambulatory ERT-experienced, aged 18-65 years, with ≥2 years prior ERT with 20 mg/kg alglucosidase alfa every 2 weeks (n=6)· • Cohort 3: ERT-naïve, aged 18-65 years (n=6). • Cohort 4: ERT-experienced, aged 18-75 years, with ≥7 years prior ERT with 20 mg/kg alglucosidase alfa every 2 weeks (n=6)
The change from baseline (CFBL) in 6MWD, % predicted sitting FVC, manual muscle test (MMT) and biomarkers—urine glucose tetrasaccharide (Hex4) and serum creatine kinase (CK)—were assessed at regular intervals. Data with up to 36 months of follow-up in ERT-experienced and ERT-naïve patients is provided herein. […] Due to the staggered timing of patient enrollment, the number of patients with data currently available decreases at later time-points in this ongoing study.

[3] = Ambulatory ERT-experienced, 12 months
[4] = Ambulatory ERT-experienced, 24 months
[5] = Ambulatory ERT-experienced, 36 months
[6] = Ambulatory ERT-experienced, 48 months
[7] = Ambulatory ERT-naïve, 12 months
[8] = Ambulatory ERT-naïve, 24 months
[9] = Ambulatory ERT-naïve, 36 months
[10] = Ambulatory ERT-naïve, 48 months
[11] = Non-ambulatory ERT-experienced, 12 months
[12] = Non-ambulatory ERT-experienced, 24 months
[13] = Non-ambulatory ERT-experienced, 36 months
[14] = Non-ambulatory ERT-experienced, 48 months
[15] = Cohort 1 + Cohort 3 + Cohort 4, Month 12
[16] = Cohort 1 + Cohort 3 + Cohort 4, Month 24
[17] = Cohort 1 + Cohort 3 + Cohort 4, Month 36
[18] = Cohort 1 + Cohort 3 + Cohort 4, Month 48

ATB200/miglustat: two-component therapy: cipaglucosidase alfa (ATB200) administered in conjunction with miglustat (AT2221), a stabilizer of cipaglucosidase alfa
Serum creatine kinase, % CFBL mean [1, 3]: −20.5%
Serum creatine kinase, % CFBL mean [1, 4]: −29.9%
Serum creatine kinase, % CFBL mean [1, 5]: −30.0%
Serum creatine kinase, % CFBL mean [1, 6]: −35.3%
Serum creatine kinase, % CFBL mean [1, 7]: −50.6%
Serum creatine kinase, % CFBL mean [1, 8]: −46.5%
Serum creatine kinase, % CFBL mean [1, 9]: −50.7%
Serum creatine kinase, % CFBL mean [1, 10]: −35.9%
mean reduction from baseline in plasma CK ([1]; Cohort 2 (non-ambulatory ERT-experienced), 12 months, listed as cipaglucosidase alfa plus miglustat): 20.8%
mean reduction from baseline in plasma CK ([1]; Cohort 2 (non-ambulatory ERT-experienced), 12 months, listed as cipaglucosidase alfa/miglustat): −20.8%
mean reduction from baseline in plasma CK ([1]; Cohort 2, 24 months, listed as cipaglucosidase alfa plus miglustat): 25.3%
mean reduction from baseline in plasma CK ([1]; Cohort 2, 24 months, listed as cipaglucosidase alfa/miglustat): −25.3%
mean reduction from baseline in plasma CK ([1]; Cohort 2, 36 months, listed as cipaglucosidase alfa plus miglustat): 27.1%
mean reduction from baseline in plasma CK ([1]; Cohort 2, 36 months, listed as cipaglucosidase alfa/miglustat): −27%
mean reduction from baseline in plasma CK ([1]; Cohort 2, 48 months, listed as cipaglucosidase alfa plus miglustat): 23.7%
mean reduction from baseline in plasma CK ([1]; Cohort 2, 48 months, listed as cipaglucosidase alfa/miglustat): −23.7%
patients with abnormal baseline CK who had normal CK levels at Month 48 ([1]; ERT-experienced (two of six)): 33.3%
patients whose plasma CK decreased numerically from baseline (n/N) ([1]; ERT-experienced, 12 months): 13/15
patients whose plasma CK decreased numerically from baseline (n/N) ([1]; ERT-experienced, 24 months): 14/15
patients whose plasma CK decreased numerically from baseline (n/N) ([1]; ERT-experienced, 36 months): 9/11
patients whose plasma CK decreased numerically from baseline (n/N) ([1]; ERT-experienced, 48 months): 8/9
CK status at Month 48 of patients with abnormal baseline CK ([1]; ERT-naïve (two of five abnormal at baseline)): remained abnormal at Month 48
patients whose plasma CK decreased numerically from baseline (n/N) ([1]; ERT-naïve, 12 months): 6/6
patients whose plasma CK decreased numerically from baseline (n/N) ([1]; ERT-naïve, 24 months): 6/6
patients whose plasma CK decreased numerically from baseline (n/N) ([1]; ERT-naïve, 36 months): 5/5
patients whose plasma CK decreased numerically from baseline (n/N) ([1]; ERT-naïve, 48 months): 4/5
Serum creatine kinase, % CFBL mean [1, 11]: −20.8%
Serum creatine kinase, % CFBL mean [1, 12]: −25.3%
Serum creatine kinase, % CFBL mean [1, 13]: −27.1%
Serum creatine kinase, % CFBL mean [1, 14]: −23.7%
Percent predicted sitting FVC, CFBL mean [2, 3]: −1.2
Percent predicted sitting FVC, CFBL mean [2, 4]: 1.0
Percent predicted sitting FVC, CFBL mean [2, 5]: −0.3
Percent predicted sitting FVC, CFBL mean [2, 6]: 1.0
Percent predicted sitting FVC, CFBL mean [2, 7]: 3.2
Percent predicted sitting FVC, CFBL mean [2, 8]: 4.7
Percent predicted sitting FVC, CFBL mean [2, 9]: 6.2
Percent predicted sitting FVC, CFBL mean [2, 10]: 8.3
sitting % predicted FVC change from baseline, mean [2, 15]: 0.0%
sitting % predicted FVC change from baseline, median [2, 15]: −0.5%
sitting % predicted FVC change from baseline, mean [2, 16]: 2.2%
sitting % predicted FVC change from baseline, median [2, 16]: 2.0%
sitting % predicted FVC change from baseline, mean [2, 17]: 1.9%
sitting % predicted FVC change from baseline, median [2, 17]: 2.0%
sitting % predicted FVC change from baseline, mean [2, 18]: 3.9%
sitting % predicted FVC change from baseline, median [2, 18]: 4.5%
sitting % predicted FVC change from baseline, mean ([2]; Cohort 1 + Cohort 4 (ERT-experienced), Month 12, listed as cipaglucosidase alfa/miglustat): −1.2%
sitting % predicted FVC change from baseline, mean ([2]; Cohort 1 + Cohort 4 (ERT-experienced), Month 36): −0.3%
sitting % predicted FVC change from baseline, median ([2]; Cohort 1 + Cohort 4, Month 12): −1.0%
sitting % predicted FVC change from baseline, median ([2]; Cohort 1 + Cohort 4, Month 24): 1.0%
sitting % predicted FVC change from baseline, median ([2]; Cohort 1 + Cohort 4, Month 36): −1.5%
sitting % predicted FVC change from baseline, median ([2]; Cohort 1 + Cohort 4, Month 48): 3.5%
FVC change from baseline, mean ([2]; month 12): +2.5%
FVC change from baseline, mean ([2]; month 24): +2.0%
FVC change from baseline, mean ([2]; month 36): −2.0%
FVC change from baseline, mean ([2]; month 48): −1.0%
sitting % predicted FVC change from baseline, mean ([2]; Cohort 3 (ERT-naïve), Month 12): 3.2%
sitting % predicted FVC change from baseline, mean ([2]; Cohort 3 (ERT-naïve), Month 24): 4.7%
sitting % predicted FVC change from baseline, mean ([2]; Cohort 3 (ERT-naïve), Month 36): 6.2%
sitting % predicted FVC change from baseline, mean ([2]; Cohort 3 (ERT-naïve), Month 48): 8.3%
sitting % predicted FVC change from baseline, median ([2]; Cohort 3, Month 12): 4.5%
sitting % predicted FVC change from baseline, median ([2]; Cohort 3, Month 24): 4.0%
sitting % predicted FVC change from baseline, median ([2]; Cohort 3, Month 36): 5.0%
sitting % predicted FVC change from baseline, median ([2]; Cohort 3, Month 48): 9.5%
patients whose FVC improved (>3%) or remained stable (±3%) from baseline (n/N) ([2]; ERT-experienced, 12 months): 9/16
patients whose FVC improved (>3%) or remained stable (±3%) from baseline (n/N) ([2]; ERT-experienced, 24 months): 11/13
patients whose FVC improved (>3%) or remained stable (±3%) from baseline (n/N) ([2]; ERT-experienced, 36 months): 8/10
patients whose FVC improved (>3%) or remained stable (±3%) from baseline (n/N) ([2]; ERT-experienced, 48 months): 4/6
patients with improvement (CFBL >3% points) in % predicted sitting FVC ([2]; ERT-experienced, Month 48): 66.7%
patients whose FVC improved (>3%) or remained stable (±3%) from baseline (n/N) ([2]; ERT-naïve, 12 months): 5/6
patients whose FVC improved (>3%) or remained stable (±3%) from baseline (n/N) ([2]; ERT-naïve, 24 months): 6/6
patients whose FVC improved (>3%) or remained stable (±3%) from baseline (n/N) ([2]; ERT-naïve, 36 months): 5/5
patients whose FVC improved (>3%) or remained stable (±3%) from baseline (n/N) ([2]; ERT-naïve, 48 months): 4/4
patients with improvement (CFBL >3% points) in % predicted sitting FVC ([2]; ERT-naïve, Month 48): 75%
Percent predicted sitting FVC, CFBL mean [2, 11]: 2.5
Percent predicted sitting FVC, CFBL mean [2, 12]: 2.0
Percent predicted sitting FVC, CFBL mean [2, 13]: −2.0
Percent predicted sitting FVC, CFBL mean [2, 14]: −1.0
% predicted FVC outcome (words; cohort in the words) ([2]; up to 48 months, listed as cipaglucosidase alfa/miglustat): stable or improved % predicted FVC for ERT-experienced subjects (Cohorts 1 and 4), ERT-naïve subjects (Cohort 3), and overall (Cohorts 1, 3, and 4); also recorded: For Cohort 2 (non-ambulatory subjects), sitting % predicted FVC was stable in 2 subjects with available data out to 36 months
